Data as given in patent US11046651B2, “Piperazine substituted azapine derivatives and uses thereof” (Alairion, Inc., priority 2019, dated 2021).
Where two headings read alike, the source gives them in different places.

How the values were obtained:
[1] = Human clearance and half-life projections (allometric scaling from monkey clearance)
Method: (§1) The biological activity of the compounds of the present disclosure may be determined utilizing projected human clearance (CL) and half-life in humans. An allometric scaling method, using a single species scaling from monkey clearance was used to project clearance. Human volume of distribution (Vd) was projected from animal Vd, adjusted for differences in plasma protein binding and assuming similar unbound Vd across species. Human half-life (T1/2) was calculated based on a one-compartmental model, using a relationship of T1/2=0.693×(predicted Vd/predicted CL).
as §1, with “An” for “The biological activity of the compounds of the present disclosure may be determined utilizing projected human clearance (CL) and half-life in humans. An”

[2] = molecular target: 5-HT2A (Homo sapiens (Human), UniProt P28223); experiment: 5-HT2A binding assay ([3H]-Ketanserin, HEK293 stable cell line membranes); conditions: Table F, class symbols
Sequence of 5-HT2A (P28223 whole entry, species assumed): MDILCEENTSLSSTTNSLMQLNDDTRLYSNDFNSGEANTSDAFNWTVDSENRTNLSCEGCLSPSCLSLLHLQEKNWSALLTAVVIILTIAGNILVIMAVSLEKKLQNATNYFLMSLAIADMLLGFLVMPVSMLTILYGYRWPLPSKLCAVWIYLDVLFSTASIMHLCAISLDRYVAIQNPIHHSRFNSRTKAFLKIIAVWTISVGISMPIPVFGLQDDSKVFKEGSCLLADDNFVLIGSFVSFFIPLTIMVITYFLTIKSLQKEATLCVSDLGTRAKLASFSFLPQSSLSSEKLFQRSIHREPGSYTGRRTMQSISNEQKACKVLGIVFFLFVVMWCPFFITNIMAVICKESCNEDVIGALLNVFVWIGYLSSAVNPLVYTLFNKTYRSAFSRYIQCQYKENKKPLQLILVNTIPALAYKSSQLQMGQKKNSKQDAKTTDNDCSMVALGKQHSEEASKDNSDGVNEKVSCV
Method: H1 and 5-HT2A Binding Assay Protocol
The testing compounds were diluted with DMSO, starting at 2 mM, with 8-points and 5-fold serial dilutions. Ketanserin and Pyrilamine were diluted with DMSO, starting at 0.2 mM, with 8-points and 5-fold serial dilution.
1 μl of a compounds of the present disclosure and either reference compound (Table C) were transferred to assay plates. 1 μl of 0.2 mM Ketanserin or Pyrilamine was transferred to an assay plate according to the plate map for nonspecific binding (Low control: LC). 1 μl of DMSO was transferred to an assay plate according to plate map for total binding (High control: HC).
100 μlof membrane stocks were dispensed into the plates, following the plate map. 100 of radio ligand was added. The plates were sealed and shaken at 300 rpm at room temperature for 1 hour. The Unifilter-96 GF/C filter plates were soaked with 50 of 0.3% PEI per well for at least 0.5 hour at room temperature.
When the binding assays were complete, the reaction mixture was filtered through GF/C plates using Perkin Elmer Filtermate Harvester, and then each plate was washed 4 times with cold wash buffer. The filter plates were dried for 1 hour at 50 degrees. After drying, the bottom of the filter plate wells were sealed using Perkin Elmer Unifilter-96 backing seal tape. 50 μl of Perkin Elmer Microscint 20 cocktail was added. The top of the filter plates were sealed with Perkin Elmer TopSeal-A sealing film.
^3H trapped on filters were counted using Perkin Elmer MicroBeta2 Reader. Inhibition constants were calculated using the following equation:
[formula] The data was analyzed using Prism 5. The model used was “log(inhibitor) vs. response—Variable slope” to fit the data and calculate IC50. The IC50 was then converted to Ki using following equation: Ki=IC50/(1+L/Kd). L is the radioligand concentration in the reaction system; Kd is the affinity of radioligand to the receptor.

[3] = molecular target: 5-HT2C (Homo sapiens (Human), UniProt P28335); experiment: 5-HT2C binding assay ([3H]-Mesulergine, HEK293 membranes)
Sequence of 5-HT2C (P28335 33-458): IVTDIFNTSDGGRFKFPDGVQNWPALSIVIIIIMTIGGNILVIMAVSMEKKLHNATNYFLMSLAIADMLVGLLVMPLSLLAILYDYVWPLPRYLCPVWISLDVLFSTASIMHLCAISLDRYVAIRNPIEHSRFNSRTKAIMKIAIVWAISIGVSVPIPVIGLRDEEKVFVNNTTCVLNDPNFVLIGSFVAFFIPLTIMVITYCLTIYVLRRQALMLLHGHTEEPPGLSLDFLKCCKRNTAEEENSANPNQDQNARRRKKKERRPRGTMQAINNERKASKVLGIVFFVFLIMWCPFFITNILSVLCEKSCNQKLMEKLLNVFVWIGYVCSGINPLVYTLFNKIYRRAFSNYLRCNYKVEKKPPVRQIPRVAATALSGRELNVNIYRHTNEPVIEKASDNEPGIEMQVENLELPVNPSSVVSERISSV

Cc1ccc2c(c1)Oc1cc(C)ccc1C(N1CCN(CC(C)(C)C(=O)O)CC1)=N2 [Compound No. 7, 3-(4-(3,7-dimethyldibenzo[b,f][1,4]oxazepin-11-yl)piperazin-1-yl)-2,2-dimethylpropanoic acid]
T1/2 (h), projected human half-life ([1]; one-compartmental model, T1/2=0.693×(predicted Vd/predicted CL)): 4 to 8 h
CL (mL/min/kg), projected human clearance ([1]; single species scaling from monkey clearance): 1.3 mL/min/kg
Ki [2]: 1 to 25 nM
Ki [3]: > 500 nM
Ki ([3]; numeric values): 2220 nM
